Assay results published in patent publication US12577245B2, “Sulfonyl benzamide derivatives as Bcl-2 inhibitors” (ASCENTAGE PHARMA (SUZHOU) CO., LTD., priority 2021, dated 2026).

Tests used:
RS4; 11Bcl-2-G101V cells = assay: CellTiter-Glo (CTG) cell viability assay in RS4;11-Bcl-2-G101V cells; format: cell-based; settings: 72 h, 10% FBS, 3 days
Experimental: RS4; 11Bcl-2-G101V, RS4; 11Bcl-2-D103E, RS4; 11Bcl-2-V156D and RS4; 11Bcl-2-G101V-D103E cells were obtained from Cobioer Biosciences. Cells were maintained in the RPMI-1640 medium with 10% FBS, 1% P/S and puromycin (1 μg/mL) at 37° C. and an atmosphere of 5% CO2.
• The effect of representative Compounds of the Disclosure on cell viability was determined using CellTiter-Glo® (CTG) luminescent cell viability assay (Promega, USA) according to the manufacturer's instructions. 95 μL of cell suspension (10000 cells/well) in culture medium were seeded into 96-well plates and cultured 4 hours. Each tested compound was serially diluted in blank culture medium, and 5 μL of the compound dilution was added to the corresponding well of the cell plate. After the addition of the tested compound, the cells were incubated at 37° C. in an atmosphere of 5% CO2 for 3 days. At the end of 3 days, 30 μL of CTG solution was added to each well of the plate and mix contents for 2 minutes on an orbital shaker. Allow the plate to incubate at room temperature for 15 mins to stabilize signal and record RLU on the Biotek plate reader. The readings were normalized to the vehicle cells, and the IC50 was calculated using GraphPad Prism 8 software.

MV-4-11 cells = assay: CCK-8 cell viability assay in MV-4-11 cells; format: cell-based; settings: Homo sapiens, MV4-11, 72 h, 10% FBS, 3 days
Experimental: MV-4-11 cells were obtained from University of Michigan. Cells were maintained in the RPMI-1640 medium with 10% FBS and 1% P/S at 37° C. and an atmosphere of 5% CO2.
• The effect of representative Compounds of the Disclosure on cell viability was determined using Cell Counting Kit-8 (CCK-8) assay (Shanghai Life iLab Biotech) according to the manufacturer's instructions. Each tested compound was serially diluted in culture medium, and 100 μL of the compound dilution was added to the corresponding well of the cell plate. 100 μL of MV-4-11 cell suspension (20000 cells/well) in culture medium were seeded into 96-well plates. The cells were incubated at 37° C. in an atmosphere of 5% CO2 for 3 days. At the end of 3 days, 20 μL of CCK-8 solution was added to each well of the plate and incubated for 1-4 hours. The plates were read at 450 nm on the Biotek plate reader. The readings were normalized to the vehicle cells, and the IC50 was calculated using GraphPad Prism 8 software.

IC50 (RS4; 11Bcl-2-G101V cells) [nM] | IC50 (MV-4-11 cells) [nM] | Structure (SMILES)
190 | 5 | CC1(C)CCC(CN2CCN(c3ccc(C(=O)NS(=O)(=O)c4ccc(NC[C@H]5CC[C@](C)(O)CC5)c([N+](=O)[O-])c4)c(Oc4cnc5[nH]ccc5c4)c3)CC2)=C(c2cc(-c3c(F)cc(F)cc3F)cs2)C1 [Example 47, 2-((1H-pyrrolo[2,3-b]pyridin-5-yl)oxy)-4-(4-((4,4-dimethyl-2-(4-(2,4,6-trifluorophenyl)thiophen-2-yl)cyclohex-1-en-1-yl)methyl)piperazin-1-yl)-N-((4-((((1r,4r)-4-hydroxy-4-methylcyclohexyl)methyl)amino)-3-nitrophenyl)sulfonyl)benzamide]
4990 | 296 | CC1(C)CCC(CN2CCN(c3ccc(C(=O)NS(=O)(=O)c4ccc(NC[C@H]5COCCO5)c([N+](=O)[O-])c4)c(Oc4cnc5[nH]ccc5c4)c3)CC2)=C(c2cc(-c3ccc(F)cn3)cs2)C1 [Example 52, (S)—N-((4-(((1,4-dioxan-2-yl)methyl)amino)-3-nitrophenyl)sulfonyl)-2-((1H-pyrrolo[2,3-b]pyridin-5-yl)oxy)-4-(4-((2-(4-(5-fluoropyridin-2-yl)thiophen-2-yl)-4,4-dimethylcyclohex-1-en-1-yl)methyl)piperazin-1-yl)benzamide]
5810 | 1210 | CC1(C)CCC(CN2CCN(c3ccc(C(=O)NS(=O)(=O)c4ccc(NC[C@H]5COCCO5)c([N+](=O)[O-])c4)c(Oc4cnc5[nH]ccc5c4)c3)CC2)=C(c2cc(-c3c(F)cc(F)c4cc[nH]c34)cs2)C1 [Example 57, (S)—N-((4-(((1,4-dioxan-2-yl)methyl)amino)-3-nitrophenyl)sulfonyl)-2-((1H-pyrrolo[2,3-b]pyridin-5-yl)oxy)-4-(4-((2-(4-(4,6-difluoro-1H-indol-7-yl)thiophen-2-yl)-4,4-dimethylcyclohex-1-en-1-yl)methyl)piperazin-1-yl)benzamide]
3180 | 107 | CC1(C)CCC(CN2CCN(c3ccc(C(=O)NS(=O)(=O)c4ccc(NC[C@H]5CC[C@](C)(O)CC5)c([N+](=O)[O-])c4)c(Oc4cnc5[nH]ccc5c4)c3)CC2)=C(c2cc(C#Cc3ccc(F)cc3)cs2)C1 [Example 61, 2-((1H-pyrrolo[2,3-b]pyridin-5-yl)oxy)-4-(4-((2-(4-((4-fluorophenyl)ethynyl)thiophen-2-yl)-4,4-dimethylcyclohex-1-en-1-yl)methyl)piperazin-1-yl)-N-((4-((((1r,4r)-4-hydroxy-4-methylcyclohexyl)methyl)amino)-3-nitrophenyl)sulfonyl)benzamide]
598 | 192 | Cc1cc(C(C)(C)O)cc(C)c1-c1csc(C2=C(CN3CCN(c4ccc(C(=O)NS(=O)(=O)c5ccc(NC[C@H]6CC[C@](C)(O)CC6)c([N+](=O)[O-])c5)c(Oc5cnc6[nH]ccc6c5)c4)CC3)CCC(C)(C)C2)c1 [Example 65, 2-((1H-pyrrolo[2,3-b]pyridin-5-yl)oxy)-N-((4-((((1r,4r)-4-hydroxy-4-methylcyclohexyl)methyl)amino)-3-nitrophenyl)sulfonyl)-4-(4-((2-(4-(4-(2-hydroxypropan-2-yl)-2,6-dimethylphenyl)thiophen-2-yl)-4,4-dimethylcyclohex-1-en-1-yl)methyl)piperazin-1-yl)benzamide]

Continued, compound first:

Structure (SMILES) | IC50 (RS4; 11Bcl-2-G101V cells) [nM] | IC50 (MV-4-11 cells) [nM]
Cc1ccsc1C1=C(CN2CCN(c3ccc(C(=O)NS(=O)(=O)c4ccc(NCC5CCOCC5)c([N+](=O)[O-])c4)c(Oc4cnc5[nH]ccc5c4)c3)CC2)CCC(C)(C)C1 [Example 4, 2-((1H-pyrrolo[2,3-b]pyridin-5-yl)oxy)-4-(4-((4,4-dimethyl-2-(3-methylthiophen-2-yl)cyclohex-1-en-1-yl)methyl)piperazin-1-yl)-N-((3-nitro-4-(((tetrahydro-2H-pyran-4-yl)methyl)amino)phenyl)sulfonyl)benzamide] | 3250 | 54
Cc1csc(C2=C(CN3CCN(c4ccc(C(=O)NS(=O)(=O)c5ccc(NCC6CCOCC6)c([N+](=O)[O-])c5)c(Oc5cnc6[nH]ccc6c5)c4)CC3)CCC(C)(C)C2)c1 [Example 5, 2-((1H-pyrrolo[2,3-b]pyridin-5-yl)oxy)-4-(4-((4,4-dimethyl-2-(4-methylthiophen-2-yl)cyclohex-1-en-1-yl)methyl)piperazin-1-yl)-N-((3-nitro-4-(((tetrahydro-2H-pyran-4-yl)methyl)amino)phenyl)sulfonyl)benzamide] | 3820 | 79
CC(C)c1cscc1C1=C(CN2CCN(c3ccc(C(=O)NS(=O)(=O)c4ccc(NCC5CCOCC5)c([N+](=O)[O-])c4)c(Oc4cnc5[nH]ccc5c4)c3)CC2)CCC(C)(C)C1 [Example 7, 2-((1H-pyrrolo[2,3-b]pyridin-5-yl)oxy)-4-(4-((2-(4-isopropylthiophen-3-yl)-4,4-dimethylcyclohex-1-en-1-yl)methyl)piperazin-1-yl)-N-((3-nitro-4-(((tetrahydro-2H-pyran-4-yl)methyl)amino)phenyl)sulfonyl)benzamide] | 4270 | 209
CC(C)c1cscc1C1=C(CN2CCN(c3ccc(C(=O)NS(=O)(=O)c4ccc(NC[C@H]5COCCO5)c([N+](=O)[O-])c4)c(Oc4cnc5[nH]ccc5c4)c3)CC2)CCC(C)(C)C1 [Example 9, (S)—N-((4-(((1,4-dioxan-2-yl)methyl)amino)-3-nitrophenyl)sulfonyl)-2-((1H-pyrrolo[2,3-b]pyridin-5-yl)oxy)-4-(4-((2-(4-isopropylthiophen-3-yl)-4,4-dimethylcyclohex-1-en-1-yl)methyl)piperazin-1-yl)benzamide] | 5420 | 167
CC(C)c1ccc(C2=C(CN3CCN(c4ccc(C(=O)NS(=O)(=O)c5ccc(NCC6CCOCC6)c([N+](=O)[O-])c5)c(Oc5cnc6[nH]ccc6c5)c4)CC3)CCC(C)(C)C2)s1 [Example 12, 2-((1H-pyrrolo[2,3-b]pyridin-5-yl)oxy)-4-(4-((2-(5-isopropylthiophen-2-yl)-4,4-dimethylcyclohex-1-en-1-yl)methyl)piperazin-1-yl)-N-((3-nitro-4-(((tetrahydro-2H-pyran-4-yl)methyl)amino)phenyl)sulfonyl)benzamide] | 4030 | 164
CC(C)c1sccc1C1=C(CN2CCN(c3ccc(C(=O)NS(=O)(=O)c4ccc(NC[C@H]5COCCO5)c([N+](=O)[O-])c4)c(Oc4cnc5[nH]ccc5c4)c3)CC2)CCC(C)(C)C1 [Example 13, (S)—N-((4-(((1,4-dioxan-2-yl)methyl)amino)-3-nitrophenyl)sulfonyl)-2-((1H-pyrrolo[2,3-b]pyridin-5-yl)oxy)-4-(4-((2-(2-isopropylthiophen-3-yl)-4,4-dimethylcyclohex-1-en-1-yl)methyl)piperazin-1-yl)benzamide] | 1790 | 25
CC(C)c1ccc(C2=C(CN3CCN(c4ccc(C(=O)NS(=O)(=O)c5ccc(NC[C@H]6COCCO6)c([N+](=O)[O-])c5)c(Oc5cnc6[nH]ccc6c5)c4)CC3)CCC(C)(C)C2)s1 [Example 14, (S)—N-((4-(((1,4-dioxan-2-yl)methyl)amino)-3-nitrophenyl)sulfonyl)-2-((1H-pyrrolo[2,3-b]pyridin-5-yl)oxy)-4-(4-((2-(5-isopropylthiophen-2-yl)-4,4-dimethylcyclohex-1-en-1-yl)methyl)piperazin-1-yl)benzamide] | 2660 | 98
CC1(C)CCC(CN2CCN(c3ccc(C(=O)NS(=O)(=O)c4ccc(NC[C@H]5COCCO5)c([N+](=O)[O-])c4)c(Oc4cnc5[nH]ccc5c4)c3)CC2)=C(c2cc(Nc3ccc(F)cc3F)cs2)C1 [Example 20, (S)—N-((4-(((1,4-dioxan-2-yl)methyl)amino)-3-nitrophenyl)sulfonyl)-2-((1H-pyrrolo[2,3-b]pyridin-5-yl)oxy)-4-(4-((2-(4-((2,4-difluorophenyl)amino)thiophen-2-yl)-4,4-dimethylcyclohex-1-en-1-yl)methyl)piperazin-1-yl)benzamide] | > 10000 | > 1000
CC1(C)CCC(CN2CCN(c3ccc(C(=O)NS(=O)(=O)c4ccc(NC[C@H]5COCCO5)c([N+](=O)[O-])c4)c(Oc4cnc5[nH]ccc5c4)c3)CC2)=C(c2cc(CN3CC4(C3)CN(S(C)(=O)=O)C4)cs2)C1 [Example 27] | 1040 | 126
